Reference: patent publication US20260374739A1, “SMALL MOLECULAR WEIGHT CHEMICAL COMPOUND TO ANTAGONIZE EPH-EPHRIN TETRAMERIZATION AND INHIBIT BIDIRECTIONAL SIGNALING” (THE BOARD OF REGENTS OF THE UNIVERSITY OF TEXAS SYSTEM, priority 2022, published 2026)

Legend:
EphrinB3-EphB2 = EphrinB3-EphB2 (Homo sapiens, UniProt P29323); test: Octet, immobilized human EphrinB3 binding to human EphB2
Procedure: Studies were conducted to confirm that A20 chemicals can effectively target the human Eph/Ephrin proteins. Octet system was used to first characterize the biophysical interactions of the human B class Eph and Ephrin proteins, and then was tested to assess how A20 may disrupt the interactions. Since the human and rodent proteins are highly conserved, and essentially identical, with EphB2 sharing 99.5% identity between human and mouse, with only 5 of ~1,000 amino acids different, any species-specific differences were not anticipated. Therefore, commercially available human EphrinB1-Fc (EB1), EphrinB2-Fc (EB2), and EphrinB3-Fc (EB3) ectodomain proteins were sparsely immobilized onto biosensors and then exposed to 50 nM of soluble human EphB1-His, EphB2-His, and EphB4-His ectodomains for 800 sec association and 1,000 sec dissociation steps with a total of nine different interactions analyzed. In the absence of A20 chemical, the immobilized human EphrinB proteins bound to their appropriate human EphB target proteins; with EphrinB1 only bound EphB1 and EphB2, EphrinB2 bound all three EphB1, EphB2, and EphB4, and EphrinB3 only bound EphB1 and EphB2 (FIG. 19A-19B).
Addition of compound also altered dissociation kinetics. […] This is referred to as the “unsurmountable” component of the Eph-Ephrin interaction (FIG. 21C). Additionally, AUC data was graphed for these runs (FIG. 21D). […]

[1] = biological target: pre-formed EphrinB2-EphB1 tetramer (Homo sapiens, UniProt P54762); test: Octet competition of pre-existing tetramers, human EphrinB2-EphB1; assay type: binding; conditions: 2, 10, 50 μM
Sequence of pre-formed EphrinB2-EphB1 tetramer (P54762 18-540 limits assumed): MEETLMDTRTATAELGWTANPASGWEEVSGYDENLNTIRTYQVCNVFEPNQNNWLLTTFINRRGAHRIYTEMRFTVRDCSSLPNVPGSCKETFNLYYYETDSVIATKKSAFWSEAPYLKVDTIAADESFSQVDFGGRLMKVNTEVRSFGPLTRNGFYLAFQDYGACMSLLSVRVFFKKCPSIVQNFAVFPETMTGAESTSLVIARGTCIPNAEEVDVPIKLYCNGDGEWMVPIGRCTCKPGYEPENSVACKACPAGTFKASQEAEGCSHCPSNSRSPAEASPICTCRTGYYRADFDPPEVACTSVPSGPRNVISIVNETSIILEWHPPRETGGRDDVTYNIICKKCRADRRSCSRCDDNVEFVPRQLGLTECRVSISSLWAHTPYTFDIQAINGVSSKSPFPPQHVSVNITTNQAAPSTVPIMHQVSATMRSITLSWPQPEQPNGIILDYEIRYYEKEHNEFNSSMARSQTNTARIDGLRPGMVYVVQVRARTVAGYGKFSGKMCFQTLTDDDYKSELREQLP
Procedure: (§1) Biophysical studies were conducted to explore if A20 is able to disrupt pre-existing stable tetramers, focusing on interactions of immobilized human EphrinB2 binding to soluble human EphB1 and EphB2, and immobilized mouse EphB2 binding to mouse EphrinB2 (FIGS. 29A-29C). In these experiments, sensor-chip immobilized proteins were first exposed to 50 nM of their soluble target protein for an 800 sec association step and 1,000 sec dissociation step to generate pre-formed stable tetramers, which were then subjected to a 1,000 sec competition step that included either 0, 2, 10, or 50 μM concentrations of A20 salt compound. […] The ability of A20 to disrupt pre-existing tetramers was most pronounced for human EB2-EphB2 and cognate murine EphB2-EB2 experiments and indicated a gradual ongoing dose-dependent decline in tetramers throughout the 1,000 sec competition step (and beyond if allowed) and irrespective of whether the human EphrinB2 or murine EphB2 was the immobilized protein.

[2] = biological target: pre-formed EphB2-EphrinB2 tetramer (Mus musculus, UniProt P54763); test: Octet competition of pre-existing tetramers, mouse EphB2-EphrinB2; assay type: binding; conditions: 2, 10, 50 μM
Sequence of pre-formed EphB2-EphrinB2 tetramer (P54763 19-543 limits assumed): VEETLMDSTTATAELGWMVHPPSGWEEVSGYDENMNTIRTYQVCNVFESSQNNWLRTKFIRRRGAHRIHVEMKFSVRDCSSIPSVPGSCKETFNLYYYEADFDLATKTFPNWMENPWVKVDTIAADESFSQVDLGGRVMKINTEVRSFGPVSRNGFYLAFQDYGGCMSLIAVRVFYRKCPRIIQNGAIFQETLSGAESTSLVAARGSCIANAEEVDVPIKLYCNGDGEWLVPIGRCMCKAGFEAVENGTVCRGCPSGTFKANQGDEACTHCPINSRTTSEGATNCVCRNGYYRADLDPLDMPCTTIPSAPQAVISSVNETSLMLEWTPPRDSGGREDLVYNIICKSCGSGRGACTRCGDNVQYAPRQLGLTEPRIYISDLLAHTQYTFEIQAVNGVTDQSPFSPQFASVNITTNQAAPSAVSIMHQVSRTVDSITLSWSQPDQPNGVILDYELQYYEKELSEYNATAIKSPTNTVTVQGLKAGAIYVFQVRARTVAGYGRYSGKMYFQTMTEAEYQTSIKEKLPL
Procedure: as §1

[3] = tested on: morphine withdrawal in mice; test: naloxone-precipitated morphine withdrawal behaviors; assay type: in vivo, mouse; conditions: 30 mg/kg IP, 4×12 hr
Procedure: Eight month old male EphB1^+/+ WT mice EphB1^−/− KO mice from the Henkemeyer mouse colony were injected intraperitoneally (IP) with increasing morphine doses in normal saline every 12 h for 4 consecutive days (day 1:20 mg/kg, day 2:40 mg/kg, day 3:60 mg/kg, day 4:80 mg/kg) and on the fifth day in the morning they were injected with a final 100 mg/kg morphine dose which was staggered by one mouse every 30 minutes. Exactly 3 h after the last morphine injection, each mouse was weighed, and withdrawal was precipitated using naloxone hydrochloride that was subcutaneously injected at 1 mg/kg. Withdrawal signs were then monitored by an examiner who was blinded to animal genotypes for 30 min after naloxone administration to identify the number of jumps, wet dog shakes, and diarrhea events observed in the 30 min period, and % change in weight from before naloxone administration to 30 min post withdrawal. For tremor and ptosis, the presence of tremor and/or a drooping upper eyelid is monitored at the beginning of each 5 min interval during the 30 min monitoring period.
WT CD1 mice was used in one experiment and WT C57BL/6 mice was used in the other. All mice were 4-5-month-old males. In both cases, 30 mg/kg A20 free base dissolved in 6% DMSO/94% sunflower seed oil was administered in 4×12 hr IP dosings to mice that were at an entering dose 6 of a 9×12 hr IP schedule of escalating morphine (2×20, 2×40, 2×60, 2×80, and 1×100 mg/kg). Naloxone was given exactly 3 hr after the last A20/morphine dose and withdrawal behaviors were monitored for 30 min. Both groups of mice were scored for jumping (FIG. 70A) and the C57BL/6 mice were additionally scored at 5 min intervals for diarrhea, tremor, and ptosis (FIG. 70B). […] In summary, A20 tetramerization inhibitor compounds serve to help reduce the adverse effects of opioid use and abuse, and could possibly be used to help wean people off of terribly addictive narcotic drugs.

Sequence of EphrinB3-EphB2 (P29323 19-543 limits assumed): as the sequence (P54763 19-543 limits assumed) above, with L104S, N154S, K520Q counted along it

SMILES: Oc1c(Br)cc(CN2CCOCC2)c2cccnc12 [Compound 5, 7-bromo-5-(morpholinomethyl)quinolin-8-ol]
- inhibition at 1 µM (EphrinB3-EphB2; EB3-EphB2, A20, read-out: reduction of tetramers): ~45%
- IC (maximum) (EphrinB3-EphB2; read-out: concentration producing maximum inhibition): 1 µM
- competition of pre-formed tetramers [1]: clearly disrupted in a dose-dependent fashion some of the pre-existing EB2-EphB1 tetramers
- competition of pre-formed tetramers [2]: able to compete away in a dose-dependent manner a significant amount of the stable pre-formed tetramer complexes
- diarrhea and ptosis [3]: did not show signs of diarrhea or ptosis
- jumps [3]: significantly fewer jumps
- tremor reduction [3]: 50%
